How the values were obtained:
[1] = Selective index, ratio of TC50 for human HeLa cells to IC50 for Plasmodium falciparum FcB1/Columbia; format: functional
[2] = system: HeLa; test: Cytotoxicity against human HeLa cells by sulforhodamine B assay; format: functional; details: read-out: TC50 (the source's name)
[3] = system: Plasmodium falciparum; test: Antimalarial activity against chloroquine-resistant Plasmodium falciparum FcB1/Columbia infected in human erythrocytes assessed as inhibition of [G-3H]hypoxanthine incorporation after 24 hrs by scintillation counting; format: functional, organism-based
[4] = system: Vero; test: Cytotoxicity against african green monkey Vero cells; format: cell-based; details: chlorocebus sabaeus
[5] = system: HT-29; test: Growth inhibition of human HT-29 cells by sulforhodamine B assay; format: functional
[6] = system: A549; test: Growth inhibition of human A549 cells by sulforhodamine B assay; format: functional; details: for CC50: read-out: LC50 (the source's name)
[7] = system: MDA-MB-231; test: Growth inhibition of human MDA-MB-231 cells by sulforhodamine B assay; format: functional; details: for CC50: read-out: LC50 (the source's name)

| SMILES | Selectivity Index [1] | CC50 [2] [µM] | IC50 [3] [µM] | Activity [4] | GI50 [5] [µM] | LC50 (concentration killing 50% of cells) [5] [µM] | TGI [5] [µM] | GI50 [6] [µM] | TGI [6] [µM] | CC50 [6] [µM] | GI50 [7] [µM] | TGI [7] [µM] | CC50 [7] [µM] |
| --- | --- | --- | --- | --- | --- | --- | --- | --- | --- | --- | --- | --- | --- |
| CC[C@H]1CCCC[C@@]2(C[C@@H]3CC[C@@H]4[C@H](C(=O)OCCCCCCCCCCCCCCCC(=O)N(CCCN)CCCCN)[C@]5(CCC[C@@H](C)O5)NC(=[N+]34)N2)O1.[Cl-] [PTILOMYCALIN A] | 1.4 | 0.1 | 0.1 | Non-toxic | – | – | – | – | – | – | – | – | – |
| CCCCCCCC[C@@H]1C[C@@H]2CC[C@H]3[C@@H](C(=O)OCCCCCCCCC[C@H]4NC(=N)N5CCCC5=C4C(=O)OCCCCNC(=N)N)[C@@H](C)N=C(N1)N23 [NORBATZELLADINE A] | 23.5 | 4.7 | 0.2 | – | 1.6 | 5.7 | 3.2 | 2.1 | 4.6 | 8.6 | 3.8 | 6.4 | 11.4 |
| CCCCCCC[C@@H]1C[C@@H]2CCc3c(C(=O)OCCCCCCC[C@H]4NC(=N)N5CCCC5=C4C(=O)OCCCCNC(=N)N)c(C)nc([n+]32)N1 [DINORDEHYDROBATZELLADINE B] | – | – | 0.8 | – | 6.2 | > 14 | > 14 | 7.9 | > 14 | > 14 | – | – | – |
| CCCCCCCCC[C@@H]1C[C@@H]2CC[C@H]3[C@@H](C(=O)OCCCCCCCCC[C@H]4NC(=N)N5CCCC5=C4C(=O)OCCCCNC(=N)N)[C@@H](C)N=C(N1)N23 [BATZELLADINE A] | 9.7 | 2.9 | 0.3 | – | – | – | – | – | – | – | – | – | – |
| CCCCCCC[C@@H]1C[C@@H]2CCc3c(C(=O)O)c(C)nc([n+]32)N1 [CLATHRIADIC ACID] | – | – | 2.3 | – | > 30 | > 30 | > 30 | > 30 | > 30 | > 30 | 13.5 | > 30 | > 30 |
| CCCCCCCCC[C@@H]1C[C@@H]2CCc3c(C(=O)OCCCCNC(=N)N)c(CCCCC)nc([n+]32)N1 [DIHOMODEHYDROBATZELLADINE C] | – | – | 4.5 | – | 3.1 | 8.2 | 5.1 | 4.7 | 8.2 | 13.1 | 6.1 | 9.8 | 15.6 |
| CCCCCCC[C@@H]1C[C@@H]2CC[C@H]3[C@@H](C(=O)OCCCCCCCCC[C@H]4NC(=N)N5CCCC5=C4C(=O)OCCCCNC(=N)N)[C@@H](C)N=C(N1)N23 [DINORBATZELLADINE A] | – | – | 0.9 | – | 1.9 | 7.6 | 4.2 | 4.9 | 5.1 | 5.4 | 3 | 3.8 | 4.6 |
| CCCCCCCCC[C@@H]1C[C@@H]2CC[C@H]3[C@@H](C(=O)OC(C)CCCCCCC[C@@H]4C[C@@H]5CC[C@@H]6C[C@H](C)NC(=N4)N65)[C@@H](C)N=C(N1)N23 (some centres undefined) [BATZELLADINE L] | <1 | < 0.1 | 0.3 | – | – | – | – | – | – | – | – | – | – |
| CCCCCCCC[C@@H]1C[C@@H]2CC[C@H]3[C@@H](C(=O)OC(C)CCCCCCC[C@@H]4C[C@@H]5CC[C@@H]6C[C@H](C)NC(=N4)N65)[C@@H](C)N=C(N1)N23 (some centres undefined) [NORBATZELLADINE L] | – | – | 0.4 | – | 1.2 | 4 | 2.2 | 1.1 | 2.1 | 4.2 | 0.7 | 1.9 | 4.8 |
